Laboratory results from article PMC10180065, “Mechanistic Studies of Arene–Ruthenium(II) Complexes with Carbothioamidopyrazoles as Alternative Cancer Drugs” (Molecules, 2023).
Where two headings read alike, the source gives them in different places.

Columns and labels:
SW620 = assay: MTT cytotoxicity, SW620; type: cell-based, human; settings: read-out: Cytotoxic effect, IC50
Method: (§1) Cytotoxicity was evaluated against fifteen adherent human cancer cell lines using the MTT test: colorectal adenocarcinoma cells Caco2 (ATCC® HTB-37™), colorectal adenocarcinoma cells HT29 (ATCC® HTB-38™), colon colorectal carcinoma HCT116 (ATCC® CCL-247™), colon adenocarcinoma COLO205 (ATCC® CCL-222™), colorectal adenocarcinoma SW620 (ATCC® CCL-227™), colorectal adenocarcinoma grade IV LoVo (ATCC® CCL-229™), hepatocellular carcinoma Hep 3b (ATCC® HB-8064™), endometrium adenocarcinoma HEC1A (ATCC® HTB-112™), Ishikawa (99040201; Sigma–Aldrich Sigma, St. Louis, MO, USA), cervical adenocarcinoma cells HeLa (ATCC® CCL-2™), lung epithelial carcinoma A549 (ATCC® CRM-CCL-185™), breast epithelial adenocarcinoma cell positive for estrogen and progesterone receptors MCF7 (ATCC® HTB-22™) and negative for expression of estrogen receptor HCC38 (ATCC® CRL-2314™), acute promyelocytic leukemia HL-60 (ATCC® CCL-240™), skin melanoma WM115 (ATCC® CRL-1676™), and 1 suspension cancer cell line: acute lymphoblastic leukemia NALM6 (purchased from the German Collection of Microorganisms and Cell Cultures). HT29, NALM6, HCC-38 and HL-60 cells were cultured in RPMI 1640 medium (Thermo Fisher Scientific, Waltham, MA, USA) supplemented with 10% fetal bovine serum and antibiotic (gentamicin 25 μg ml^−1) (Gibco, Grand Island, New York, NY, USA). For the remaining tumor cell lines, Dulbecco’s minimal essential medium (DMEM, Lonza, Visp, Switzerland) supplemented with 10% fetal bovine serum and antibiotic instead of RPMI 1640 was used. In addition, Human Microvascular Endothelial Cells (HMEC1), which were obtained from the American Type Culture Collection (Manassas, VA, USA), were used as a model of normal cells. HMEC-1 were cultured in MCDB131 medium (Corning Life Sciences, Corning, NY, USA), supplemented with 10% fetal bovine serum, 10 ng/mL Epidermal Growth Factor (Millipore, Burlington, MA, USA) and 10 mM glutamine (Corning Life Sciences). All cells were grown at 37 °C in humidified atmosphere of 5% CO2 in air. The exponential growth of cells was maintained by regular passaging at 90% confluence three times a week using 0.025% trypsin/EDTA (Gibco, Grand Island, New York, NY, USA).
(§2) The cytotoxicity was tested by a standard MTT [3-(4,5-dimethylthiazol-2-yl)-2,5-diphenyltetrazolium bromide] (Sigma, St. Louis, MO, USA) microplate cell viability assay. The anticancer activity of the investigated compounds was evaluated in vitro on the basis of their ability to inhibit the proliferation of various cancer cells. Exponentially growing cells were seeded a day before the experiment into a 96-well microplate (Nunc, Roskilde, Denmark) at a density up to 6–8 × 10^3 cells/mL (depending on the cell line) and exposed to the test compounds at a wide range of concentrations for 48 h. Subsequently, various concentrations of the studied compounds (10^−7–10^−5 M) freshly prepared in DMSO (final concentration of <0.1% DMSO) and diluted with complete culture medium were added. After 48 h incubation, the cells were immediately subjected to a cell viability assay. At this time point, the number of viable cells in each well was estimated by the MTT test. Briefly, 50 µL (5 mg/mL final concentration) of MTT was added to each microplate well. This procedure was then followed by a three- to four-hour incubation at 37 °C. After incubation, MTT solution was replaced with 100 µL DMSO/well, which solubilized the formazan crystals formed by the dehydrogenases of metabolically active cells. Purple formazan absorbance was measured spectrophotometrically at 570 nm.

MCF7 = assay: MTT cytotoxicity, MCF7; type: cell-based, human; settings: 48 h incubation, read-out: Cytotoxic effect, IC50
Method: as §1, §2

A549 = assay: MTT cytotoxicity, A549; type: cell-based, human; settings: 48 h incubation, read-out: Cytotoxic effect, IC50
Method: as §1, §2

HEC1A = assay: MTT cytotoxicity, HEC1A; type: cell-based, human; settings: 48 h incubation, read-out: Cytotoxic effect, IC50
Method: as §1, §2

Ishikawa = assay: MTT cytotoxicity, Ishikawa; type: cell-based, human; settings: 48 h incubation, read-out: Cytotoxic effect, IC50
Method: as §1, §2

WM115 = assay: MTT cytotoxicity, WM115; type: cell-based, human; settings: read-out: Cytotoxic effect, IC50
Method: as §1, §2

NALM6 = assay: MTT cytotoxicity, NALM6; type: cell-based, human; settings: read-out: Cytotoxic effect, IC50
Method: as §1, §2

LoVo = assay: MTT cytotoxicity, LoVo; type: cell-based, human; settings: 48 h incubation, read-out: Cytotoxic effect, IC50
Method: as §1, §2

Hela = assay: MTT cytotoxicity, Hela; type: cell-based, human; settings: 48 h incubation, read-out: Cytotoxic effect, IC50
Method: as §1, §2

Colo205 = assay: MTT cytotoxicity, Colo205; type: cell-based, human; settings: read-out: Cytotoxic effect, IC50
Method: as §1, §2

Hep 3b = assay: MTT cytotoxicity, Hep 3b; type: cell-based, human; settings: 48 h incubation, read-out: Cytotoxic effect, IC50
Method: as §1, §2

HT29 = assay: MTT cytotoxicity, HT29; type: cell-based, human; settings: read-out: Cytotoxic effect, IC50
Method: as §1, §2

Caco2 = assay: MTT cytotoxicity, Caco2; type: cell-based, human; settings: read-out: Cytotoxic effect, IC50
Method: as §1, §2

Lipophilicity by RP-TLC = type: physicochemical; set-up: key: RM = log(1/Rf − 1), Rf = a/b; settings: eluent AcCN: H2O at 30–70% v/v, 22 °C
Method: All the experimental solutions of standard substances (0.1 mg/mL) were prepared by dissolving ligands (1a–1d) or ruthenium complexes (2a/3a–2d/3d) in ethanol. Commercially-available octadecyl-modified silica aluminum sheets (20 × 20 cm) were cut into 5 × 10 cm plates. The plates were manually spotted with 1.0 μL of freshly prepared solutions using automatic pipets, 5 mm from each edge. The chromatograms for all compounds (1a/2a/3a–1d/2d/3d) were developed using a horizontal developing chamber and the solvent migration distance was about 4.5 cm. The plates were visually inspected under UV light at 254 nm. Each zone was clearly marked and its distance was manually measured. The RP-TLC analyses of lipophilicity were performed at ambient temperature (22 °C). In this experiment, all measurements were performed in triplicate and the obtained results were used in further calculations. The acetonitrile and water mixtures for ligands 1a–1d and arene–ruthenium(II) complexes 2a/3a–2d/3d were used as mobile phases, with […] content increasing in the range of 30–70% v/v, at 5% intervals. Values of the chromatographic retention coefficient Rf (as shown Formula (1)) and RM (as shown Formula (2)), based on received chromatograms, were calculated and converted as follows:(1) Rf=a/b (2) RM=log1/Rf−1

HCC38 = assay: MTT cytotoxicity, HCC38; type: cell-based, human; settings: 48 h incubation, read-out: Cytotoxic effect, IC50
Method: as §1, §2

HL60 = assay: MTT cytotoxicity, HL60; type: cell-based, human; settings: read-out: Cytotoxic effect, IC50
Method: as §1, §2

[1] = tested on: human microvascular endothelial cell line HMEC1; assay: MTT cytotoxicity, normal endothelial cells HMEC1; type: cell-based
Method: as §1, §2

[2] = Homo sapiens, SW-620, 48 h incubation
[3] = Homo sapiens, WM-115, 48 h incubation
[4] = Homo sapiens, NALM-6, 48 h incubation
[5] = Homo sapiens, COLO 205, 48 h incubation
[6] = Homo sapiens, HT-29, 48 h incubation
[7] = Homo sapiens, Caco-2, 48 h incubation
[8] = Homo sapiens, HL-60, 48 h incubation

| SMILES | IC50 (SW620; [2]) | IC50 (MCF7; Homo sapiens) | IC50 (A549; Homo sapiens) | IC50 (HEC1A; Homo sapiens, HEC-1-A) | IC50 (Ishikawa; Homo sapiens) | IC50 (WM115; [3]) | IC50 (NALM6; [4]) | IC50 (LoVo; Homo sapiens) | IC50 (Hela; Homo sapiens) | IC50 (Colo205; [5]) | IC50 (Hep 3b; Homo sapiens, Hep3B) | IC50 (HT29; [6]) | IC50 (Caco2; [7]) | Lipophilicity, RM (Lipophilicity by RP-TLC) | IC50 (HCC38; Homo sapiens) | IC50 (HL60; [8]) | IC50 (SW620; 48 h incubation) | IC50 (MCF7) | IC50 (A549) | IC50 (HEC1A) | further results |
| --- | --- | --- | --- | --- | --- | --- | --- | --- | --- | --- | --- | --- | --- | --- | --- | --- | --- | --- | --- | --- | --- |
| Cc1cc(C)n(C(N)=S)n1 [1a] | > 200 µM | > 200 µM | > 200 µM | 111 ± 9.6 µM | 124 ± 4.8 µM | > 200 µM | > 200 µM | > 200 µM | > 200 µM | > 200 µM | > 200 µM | > 200 µM | > 200 µM | 2.32 | > 200 µM | > 200 µM | – | – | – | – | – |
| CCc1cc(CC)n(C(N)=S)n1.Cc1ccc(C(C)C)cc1.[Cl-].[Cl][Ru+] [2b] | – | – | – | – | – | – | – | – | – | – | – | – | – | 2.59 | – | – | 107 ± 3.4 µM | 82.7 ± 3 µM | > 200 µM | 36.4 ± 1.7 µM | IC50 ([1]; HMEC1 normal endothelial cells, 48 h incubation, read-out: Cytotoxic effect, IC50): 125 ± 2.1 µM; IC50 for HMEC-1 higher than for cancer cells (selectivity) ([1]; HMEC-1 vs cancer cells): 3–5 times; IC50 (Ishikawa): 51.4 ± 1.9 µM; IC50 (WM115; 48 h incubation): 54.9 ± 5.9 µM; IC50 (NALM6; 48 h incubation): 40 ± 5.6 µM; IC50 (LoVo): 59.7 ± 3.2 µM; IC50 (Hela): 164 ± 8.5 µM; IC50 (Colo205; 48 h incubation): 115 ± 4.1 µM; IC50 (Hep 3b): > 200 µM; IC50 (HT29; 48 h incubation): 107 ± 5.9 µM; IC50 (Caco2; 48 h incubation): > 200 µM; IC50 (HCC38): 63.7 ± 4.4 µM; IC50 (HL60; 48 h incubation): 80.8 ± 3.9 µM |
| CCc1cc(CC)n(C(N)=S)n1 [1b] | > 200 µM | > 200 µM | > 200 µM | 114 ± 11.3 µM | 100 ± 4.6 µM | > 200 µM | > 200 µM | > 200 µM | > 200 µM | > 200 µM | > 200 µM | > 200 µM | > 200 µM | 2.51 | > 200 µM | > 200 µM | – | – | – | – | – |
| NC(=S)n1nc(-c2ccccc2)cc1O [1c] | > 200 µM | > 200 µM | > 200 µM | 110 ± 8.9 µM | 94 ± 2.4 µM | > 200 µM | 152 ± 26.7 µM | > 200 µM | > 200 µM | > 200 µM | > 200 µM | > 200 µM | > 200 µM | 2.04 | > 200 µM | > 200 µM | – | – | – | – | – |
| Cc1cc(O)n(C(N)=S)n1.Cc1ccc(C(C)C)cc1.F[P-](F)(F)(F)(F)F.[Cl-].[Ru+2] [3d] | – | – | – | – | – | – | – | – | – | – | – | – | – | 2.39 | – | – | > 200 µM | > 200 µM | 152 ± 2.8 µM | 128 ± 2.1 µM | IC50 (Ishikawa): > 200 µM; IC50 (WM115; 48 h incubation): > 200 µM; IC50 (NALM6; 48 h incubation): > 200 µM; IC50 (LoVo): 110 ± 6.9 µM; IC50 (Hela): > 200 µM; IC50 (Colo205; 48 h incubation): > 200 µM; IC50 (Hep 3b): > 200 µM; IC50 (HT29; 48 h incubation): 185.2 ± 1.8 µM; IC50 (Caco2; 48 h incubation): 162 ± 6.1 µM; IC50 (HCC38): 188 ± 6.4 µM; IC50 (HL60; 48 h incubation): > 200 µM |
| Cc1ccc(C(C)C)cc1.Cc1ccc(C(C)C)cc1.[Cl][Ru][Cl].[Cl][Ru][Cl] [compound 4, dichloro(p-cymene)ruthenium(II), reference compound] | – | – | – | – | – | – | – | – | – | – | – | – | – | – | – | – | > 200 µM | > 200 µM | > 200 µM | 108 ± 3.4 µM | IC50 (Ishikawa): 120 ± 7.2 µM; IC50 (WM115; 48 h incubation): > 200 µM; IC50 (NALM6; 48 h incubation): > 200 µM; IC50 (LoVo): 168 ± 7 µM; IC50 (Hela): > 200 µM; IC50 (Colo205; 48 h incubation): > 200 µM; IC50 (Hep 3b): 167 ± 6.8 µM; IC50 (HT29; 48 h incubation): > 200 µM; IC50 (Caco2; 48 h incubation): > 200 µM; IC50 (HCC38): > 200 µM; IC50 (HL60; 48 h incubation): > 200 µM |
| Cc1cc(O)n(C(N)=S)n1 [1d] | > 200 µM | > 200 µM | > 200 µM | 99.1 ± 5.7 µM | > 200 µM | 90.9 ± 10.2 µM | > 200 µM | > 200 µM | > 200 µM | > 200 µM | > 200 µM | > 200 µM | > 200 µM | 1.29 | > 200 µM | > 200 µM | – | – | – | – | – |
